Results published in ChEMBL document CHEMBL1201862, “PubChem BioAssay data set” (2004).
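Briefly, cells in 96-well plates were exposed to five compound concentrations for 48 h, and endpoints were estimated by linear interpolation. GI50 marks 50% less growth.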 Activity calls are given as the source filed them. Cut-off read from the data, not from the text of the source: active = GI50 up to about 1.1 µM and inactive = higher.

Experiments:
Assay in all cases: growth of human tumour cells (NCI), 48 h
A498 = system: A498
BT-549 = system: BT-549
CAKI-1 = system: CAKI-1
CCRF-CEM = system: CCRF-CEM
HCT-116 = system: HCT-116
HL-60 = system: HL-60
IGROV-1 = system: IGROV-1
LOX IMVI = system: LOX IMVI
MOLT-4 = system: MOLT-4
OVCAR-5 = system: OVCAR-5
RXF 393 = system: RXF 393
SK-MEL-2 = system: SK-MEL-2
SK-OV-3 = system: SK-OV-3
SW-620 = system: SW-620
TK-10 = system: TK-10
UACC-257 = system: UACC-257
MCF7 = system: MCF7
SNB-75 = system: SNB-75

O=C1O[B-](c2ccccc2)(c2ccccc2)[NH+]2CCCC12 (configuration not stated)
GI50 (A498): 55.7 µM (inactive)
GI50 (BT-549): 41.8 µM (inactive)
GI50 (CAKI-1): 47.4 µM (inactive)
GI50 (CCRF-CEM): > 100 µM (inactive)
GI50 (HCT-116): 47 µM (inactive)
GI50 (HL-60): > 100 µM (inactive)
GI50 (IGROV-1): > 100 µM (inactive)
GI50 (LOX IMVI): > 100 µM (inactive)
GI50 (MOLT-4): > 100 µM (inactive)
GI50 (OVCAR-5): > 100 µM (inactive)
GI50 (RXF 393): 43.5 µM (inactive)
GI50 (SK-MEL-2): 97.7 µM (inactive)
GI50 (SK-OV-3): > 100 µM (inactive)
GI50 (SW-620): 63.4 µM (inactive)
GI50 (TK-10): 44.4 µM (inactive)
GI50 (UACC-257): 64.9 µM (inactive)

Cn1cnc(N2CCCC2)c(C#N)c1=O
GI50 (A498): > 100 µM (inactive)
GI50 (CAKI-1): > 100 µM (inactive)
GI50 (CCRF-CEM): > 100 µM (inactive)
GI50 (HCT-116): > 100 µM (inactive)
GI50 (HL-60): > 100 µM (inactive)
GI50 (IGROV-1): > 100 µM (inactive)
GI50 (LOX IMVI): > 100 µM (inactive)
GI50 (MCF7): > 100 µM (inactive)
GI50 (MOLT-4): > 100 µM (inactive)
GI50 (OVCAR-5): > 100 µM (inactive)
GI50 (RXF 393): > 100 µM (inactive)
GI50 (SK-MEL-2): > 100 µM (inactive)
GI50 (SW-620): > 100 µM (inactive)
GI50 (TK-10): > 100 µM (inactive)
GI50 (UACC-257): > 100 µM (inactive)

CN(C)/C=C/C=C(/C=N/S(=O)(=O)C(F)(F)F)C1C=CN(S(=O)(=O)C(F)(F)F)C=C1
GI50 (A498): 41 µM (inactive)
GI50 (BT-549): 26.2 µM (inactive)
GI50 (CAKI-1): 25.6 µM (inactive)
GI50 (CCRF-CEM): 27.1 µM (inactive)
GI50 (HCT-116): 29.2 µM (inactive)
GI50 (HL-60): 19.8 µM (inactive)
GI50 (IGROV-1): 54.3 µM (inactive)
GI50 (LOX IMVI): 42.8 µM (inactive)
GI50 (MOLT-4): 26.2 µM (inactive)
GI50 (OVCAR-5): 30.2 µM (inactive)
GI50 (SK-MEL-2): 24.5 µM (inactive)
GI50 (SK-OV-3): 28.4 µM (inactive)
GI50 (SNB-75): 16.6 µM (inactive)
GI50 (SW-620): 38.1 µM (inactive)
GI50 (TK-10): 36.6 µM (inactive)
GI50 (UACC-257): 23.1 µM (inactive)

O=C(CC(C(=O)c1ccsc1)c1ccccc1)c1cccs1 (configuration not stated)
GI50 (A498): 77.6 µM (inactive)
GI50 (CAKI-1): > 100 µM (inactive)
GI50 (CCRF-CEM): 80.5 µM (inactive)
GI50 (HCT-116): 44.5 µM (inactive)
GI50 (HL-60): 41.1 µM (inactive)
GI50 (IGROV-1): > 100 µM (inactive)
GI50 (MCF7): 33 µM (inactive)
GI50 (MOLT-4): 49.9 µM (inactive)
GI50 (OVCAR-5): > 100 µM (inactive)
GI50 (RXF 393): 59.3 µM (inactive)
GI50 (SK-OV-3): > 100 µM (inactive)
GI50 (SNB-75): 72.6 µM (inactive)
GI50 (SW-620): > 100 µM (inactive)
GI50 (TK-10): > 100 µM (inactive)
GI50 (UACC-257): 61 µM (inactive)

c1ccc(C(C2=Nc3cccc4cccc(c34)N2)c2ccccc2)cc1
GI50 (BT-549): 22 µM (inactive)
GI50 (CAKI-1): 22.6 µM (inactive)
GI50 (CCRF-CEM): 39.2 µM (inactive)
GI50 (HCT-116): > 10 µM (inactive)
GI50 (HL-60): 31.7 µM (inactive)
GI50 (IGROV-1): 33.9 µM (inactive)
GI50 (LOX IMVI): 18.7 µM (inactive)
GI50 (MCF7): 31.8 µM (inactive)
GI50 (RXF 393): 27.3 µM (inactive)
GI50 (SK-MEL-2): 20.9 µM (inactive)
GI50 (SK-OV-3): 21.5 µM (inactive)
GI50 (SNB-75): 22.3 µM (inactive)
GI50 (SW-620): 47.3 µM (inactive)
GI50 (TK-10): 47.9 µM (inactive)
GI50 (UACC-257): 24.5 µM (inactive)

COc1cc(C2c3cc4c(cc3OC(NN=C(C)C)C2C)OCO4)cc(OC)c1O (configuration not stated)
GI50 (BT-549): 12.2 µM (inactive)
GI50 (CAKI-1): 61.5 µM (inactive)
GI50 (HCT-116): 24.9 µM (inactive)
GI50 (IGROV-1): 15.7 µM (inactive)
GI50 (MCF7): 12.4 µM (inactive)
GI50 (OVCAR-5): 64.4 µM (inactive)
GI50 (RXF 393): 24.7 µM (inactive)
GI50 (SK-MEL-2): 8.61 µM (inactive)
GI50 (SNB-75): 3.66 µM (inactive)
GI50 (SW-620): 6.93 µM (inactive)
GI50 (TK-10): 25.4 µM (inactive)
GI50 (UACC-257): 89.3 µM (inactive)

O=C(/N=N/c1ccc(Cl)cc1Cl)NNc1ccc(Cl)cc1Cl
GI50 (A498): 15.7 µM (inactive)
GI50 (BT-549): 14.8 µM (inactive)
GI50 (CAKI-1): 19.6 µM (inactive)
GI50 (CCRF-CEM): 20.2 µM (inactive)
GI50 (HCT-116): 13.9 µM (inactive)
GI50 (HL-60): 20.7 µM (inactive)
GI50 (IGROV-1): 27 µM (inactive)
GI50 (LOX IMVI): 16.5 µM (inactive)
GI50 (MOLT-4): 16.3 µM (inactive)
GI50 (OVCAR-5): 19.3 µM (inactive)
GI50 (SK-MEL-2): 12.9 µM (inactive)
GI50 (SNB-75): 31.6 µM (inactive)
GI50 (SW-620): 21.3 µM (inactive)
GI50 (TK-10): 24.3 µM (inactive)
GI50 (UACC-257): 19.6 µM (inactive)

CC(C)CCNC(=O)c1ccc(CNC(=O)/C=C/c2ccc3ccccc3c2)cc1
GI50 (A498): > 100 µM (inactive)
GI50 (CAKI-1): > 100 µM (inactive)
GI50 (CCRF-CEM): > 10 µM (inactive)
GI50 (HCT-116): > 100 µM (inactive)
GI50 (HL-60): > 100 µM (inactive)
GI50 (LOX IMVI): > 100 µM (inactive)
GI50 (MCF7): > 100 µM (inactive)
GI50 (MOLT-4): > 100 µM (inactive)
GI50 (OVCAR-5): > 100 µM (inactive)
GI50 (RXF 393): > 100 µM (inactive)
GI50 (SK-MEL-2): > 100 µM (inactive)
GI50 (SK-OV-3): > 100 µM (inactive)
GI50 (SNB-75): > 100 µM (inactive)
GI50 (SW-620): > 100 µM (inactive)
GI50 (UACC-257): > 100 µM (inactive)

COc1ccc2c(c1)CCC1=CC3(CCC12C)SCCS3 (configuration not stated)
GI50 (BT-549): > 10 µM (inactive)
GI50 (CAKI-1): 7.52 µM (inactive)
GI50 (CCRF-CEM): 3.97 µM (inactive)
GI50 (HL-60): 2.81 µM (inactive)
GI50 (IGROV-1): 6.19 µM (inactive)
GI50 (LOX IMVI): 7.06 µM (inactive)
GI50 (MCF7): 3.48 µM (inactive)
GI50 (MOLT-4): 3.8 µM (inactive)
GI50 (SK-OV-3): 3.27 µM (inactive)
GI50 (SNB-75): 0.649 µM (active)
GI50 (SW-620): 4.56 µM (inactive)
GI50 (TK-10): > 10 µM (inactive)
GI50 (UACC-257): > 10 µM (inactive)
